Data from patent publication US20190167814A1, “Treatment And/Or Prevention Of DNA-Triplet Repeat Diseases Or Disorders” (UNIVERSITÉ DE LAUSANNE, priority 2016, published 2019).

How the values were obtained:
GFP(CAG)101 cells [1] = test: GFP-based assay for CAG repeat expansions and contractions (flow cytometry of GFP- and GFP+ cells); format: cell-based, human; conditions: for frequency of GFP+ cells (contractions) induced by Cas9 nickase + gCTG under inhibitor, in words: inhibitor 1 μM, compared to DMSO controls; for Cas9 nickase + gCTG-induced GFP-/GFP+ cells on siRNA knockdown, in words: 20 nM siRNA, compared to control knockdown of vimentin
Procedure: (§1) The GFP(CAG)0 and GFP(CAG)101 cells lines were a kind gift from John H. Wilson^3. The cells tested negative for mycoplasma using the MycoAlert detection kit (Lonza) at the start of our experiments. The GFP(CAG)15, GFP(CAG)18, GFP(CAG)42, GFP(CAG)50, and GFP(CAG)270 were isolated from populations grown for 6 months unperturbed or after transfection with the ZFN. […] The cells were maintained at 37° C. with 5% CO2 in Dulbecco's modified Eagle's medium (DMEM) glutamax, supplemented with 10% Fetal Bovine Serum (FBS), 100 U/mL penicillin (pen), 100 μg/mL streptomycin (strep), 15 μg/mL blasticidine and 150 μg/mL hygromycin. When the cells were destined for flow cytometry, they were kept in DMEM glutamax, with 10% of dialyzed calf serum, along with pen-strep. During the long term culturing, the cells were split 1 to 5 twice a week and the medium was supplemented with blasticidine and hygromycin to ensure continued expression of the TetR and GFP transgenes.
The plasmids used in this study are found in Table 2. cDNA transfections were performed using 6×10^5 cells/well in 12-well plates using a total of 1 μg of DNA and Lipofectamine 2000 (Life Technologies) per well. The culture medium was replaced 6 hours after transfection and 2 μg/mL of dox, diluted in DMSO, was added. Controls without dox were treated with DMSO alone. Forty-eight hours later, the medium was replaced and dox was freshly added. Flow cytometry, protein extraction, and/or DNA extraction were performed after another 48 hours of incubation.
The siRNAs used in this study are found in Table 3. When transfecting with both a cDNA and a siRNA, 8×10^5 cells/well were used along with 1 μg of DNA and 20 nM of siRNAs using Lipofectamine 2000. The medium was replaced 6 hours later and dox was added. Forty-eight hours after the first transfection, we performed a second siRNA transfection with RNAiMax (Life technologies) using half of the cells present and 20 nM of siRNA. We collected the cells to assess knockdown efficiency or GFP fluorescence analysis 48 hours later. When transfecting two siRNAs, we used a final siRNA concentration of 40 nM, where 20 nM of each individual siRNA were used.
(§2) When using small molecule inhibitors (Table 4), the cells were treated as above, except that 2×10^5 fewer cells/well were used. The medium, along with the dox and the inhibitors, were replaced for another 48 hours of treatment. Cell cycle analysis was performed after 96 hours of treatment. Briefly, the cells were fixed with 100% ethanol and treated with RNAseA (50 μg/mL) before adding propidium iodine (50 μg/mL). Flow cytometry analysis was performed as described below.
(§3) In preparation for flow cytometry analysis, cells were re-suspended in phosphate buffered saline (PBS) with 1 mM EDTA to a concentration of about 10^6 cells/mL. For each condition, we measured at least 2×10^5 events using a LSRII from BD. Data analysis was done using Flowing II. FACS was performed using a FACS Aria II (BD) or MoFlo Astrios (Beckman Coulter). For single clone analyses, we re-suspended the cells to a concentration of 2×10^6 cells/mL and sorted the GFP^− and GFP^+ cells. The cells were then expanded in DMEM glutamax supplemented with pen-strep, blasticidine, hygromycin, 5% FBS, and 5% dialyzed calf serum. For DNA isolation, cells were re-suspended to a concentration of 1.4×10^7 cells/mL and we isolated between 4×10^4 and […] from the GFP− and GFP^+ populations. We also isolated cells with GFP intensities between the 25th and 75th percentiles. For viability tests, cells were treated as described above except that 96 hours after the first transfection they were collected in PBS with 1 mM EDTA and 1 μM of TO-PRO-3 was added as a dead cell marker.
To quantify the fold increase in the number of GFP^+ or GFP^− cells, we first established gates that contained the top or bottom 1% of GFP expressing cells in the control treatment, for example the nickase plasmid transfected together with an empty gRNA vector (pPN10). […]

GFP(CAG)101 cells [2] = test: Cell viability (TO-PRO-3 dead cell marker, flow cytometry); format: cell-based; conditions: Cas9 D10A + gCTG transfected cells treated with DMSO or inhibitor (1 μM); three experiments
Procedure: as §3

GFP(CAG)101 cells [3] = test: Cell cycle analysis upon inhibitor treatment (propidium iodine, flow cytometry); format: cell-based, human; conditions: for >2n / >4n / G1 / G2 / S: Cas9 D10A + gCTG cells, DMSO or inhibitor 1 μM, 96 hours, average % of cells, n = 4
Procedure: as §2

PARP1/2 = test: PAR levels after Zeocin treatment (western blot); format: cell-based, human; conditions: 100 μg/ml Zeocin, 30 minutes and 24 hours
Description: Dashed line: dimmest (GFP^−) or brightest (GFP^+) 1% of the cells transfected with the Cas9 nickase vector; the empty gRNA plasmid; and the indicated siRNAs. Right: western blot showing knockdown efficiency by siRNA against XRCC1. B) Left: same as A, but cells treated with the PARP inhibitor Oliparib (n=4, P=0.5 for GFP^− cells and P=0.4 for GFP^+ compared to DMSO treated-cells, using a Wilcoxon U-test). Dashed line: dimmest (GFP^−) or brightest (GFP^+) 1% of the cells transfected with the Cas9 nickase vector together with the empty gRNA plasmid, and treated with either DMSO or Oliparib. Right: PAR levels 30 minutes and 24 hours after treatment with 100 μg/ml of Zeocin. The error bars represent the standard error.
Protein extraction was done using RIPA buffer and proteinase inhibitor cocktail tablets (Roche, Germany) and at least 10 μg of proteins were loaded onto a 6% or 10% Tris/glycine SDS polyacrylamide gels and transferred onto nitrocellulose membranes. The antibodies used in this study are found in Table 6. An Odyssey Infrared Imager (Licor) was used for signal detection.

GFP(CAG)0 cells = test: GFP-based reporter assay in isogenic cell line devoid of CAG repeats; design: species or system human; conditions: GFP(CAG)0, no CAG repeats
Procedure: as §1, with “When the cells were destined for flow cytometry, they were kept in DMEM glutamax, with 10% of dialyzed calf serum, along with pen-strep. During the long term culturing, the cells were split 1 to 5 twice a week and the medium was supplemented with blasticidine and hygromycin to ensure continued expression of the TetR and GFP transgenes.” left out
In preparation for flow cytometry analysis, cells were re-suspended in phosphate buffered saline (PBS) with 1 mM EDTA to a concentration of about 10^6 cells/mL. For each condition, we measured at least 2×10^5 events using a LSRII from BD. […]
To quantify the fold increase in the number of GFP^+ or GFP^− cells, we first established gates that contained the top or bottom 1% of GFP expressing cells in the control treatment, for example the nickase plasmid transfected together with an empty gRNA vector (pPN10). […] Once the GFP gates established, we calculated the percentage of cells from the treated population (e.g., expressing both the Cas9 nickase and the gCTG) falling within these same gates. […]

[4] = inhibitor 1 μM in combination with Cas9-nickase and gCTG, vs nickase + pPN10 + inhibitor

| Molecule | frequency of GFP+ cells (contractions) induced by Cas9 nickase + gCTG under inhibitor, in words (GFP(CAG)101 cells [1]) | Viability % (GFP(CAG)101 cells [2]) [%] | >2n (GFP(CAG)101 cells [3]) [%] | >4n (GFP(CAG)101 cells [3]) [%] | G1 (GFP(CAG)101 cells [3]) [%] | G2 (GFP(CAG)101 cells [3]) [%] | S (GFP(CAG)101 cells [3]) [%] | Cas9 nickase + gCTG-induced GFP-/GFP+ cells on siRNA knockdown, in words (GFP(CAG)101 cells [1]) | also measured |
| --- | --- | --- | --- | --- | --- | --- | --- | --- | --- |
| O=C(c1cc(Cc2n[nH]c(=O)c3ccccc23)ccc1F)N1CCN(C(=O)C2CC2)CC1 [Oliparib] | Neither treatment changed the frequency | 75.9 | 5.0 | 5.3 ± 1 | 40.7 | 30.0 | 19.0 |  | cell cycle effect, in words (GFP(CAG)101 cells [3]): accumulation of G2 cells; PARylation in response to zeocin treatment (PARP1/2): inhibiting PARylation |
| siMSH2: siRNA targeting MSH2, SEQ ID No. 6 (UCUGCAGAGUGUUGUGCUU; listed as RNA, chemistry not given here) |  |  |  |  |  |  |  | did not consistently reduce |  |
| C[C@@H]1CN(CC(=O)Nc2ccc3c(c2)Cc2cccc(-c4cc(=O)cc(N5CCOCC5)o4)c2S3)C[C@H](C)O1 [KU60019] | nearly two-fold reduction | 77.2 | 7.5 | 4.9 ± 1 | 34.9 | 37.2 | 15.3 |  |  |
| siRNA against XRCC1: siRNA targeting XRCC1, SEQ ID No. 8 (CAGUUUGUGAUCACAGCACAGGAAU; listed as RNA, chemistry not given here) |  |  |  |  |  |  |  | did not affect the GFP expression |  |
| siXPA: siRNA targeting XPA, SEQ ID No. 7 (GCUACUGGAGGCAUGGCUA; listed as RNA, chemistry not given here) |  |  |  |  |  |  |  | did not significantly reduce |  |
| CS(=O)(=O)c1ccc(-c2cnc(N)c(C(=O)Nc3ccccc3)n2)cc1 [VE-821] |  |  | 2.0 | 10.3 ± 3 | 41.4 | 25.4 | 20.9 |  | fold increase in GFP+ cells (GFP(CAG)101 cells [1]; [4]): 5.9 fold; fold increase in GFP- cells (GFP(CAG)101 cells [1]; [4]): 3.1 fold; effect on GFP intensities / GFP expression, in words (GFP(CAG)0 cells): did not affect GFP expression |
